Results reported in patent US12161694B2, “Methods and compositions for regulating innate lymphoid cell inflammatory responses” (The Broad Institute, Inc., priority 2017, dated 2024).
Entries after “also recorded” stand apart in the source; their conditions may differ. Where no end group is shown, it is not given here.

Test system: IL-5 and IL-13 in lung and BALF
Assay: In vivo ILC activation (intranasal), lung analysis: Il5, Il13, Il17rb mRNA in lung mononuclear cells (qPCR), IL-5/IL-13 in BALF (LegendPlex)
Parameters: species or system mouse
Description: Mice and in vivo ILC activation. C57Bl/6J mice were purchased from the Jackson Laboratory. Nmur1-LacZ reporter mice with a LacZ cassette knocked into the Nmur1 locus were rederived from Nmur1^tm1.1(KOMP)Vleg sperm obtained from the trans-NIH Knock-Out Mouse Project (KOMP) Repository. Mice were housed under specific-pathogen-free conditions. For experiments, mice were matched for sex and age, and most mice were 6-10 weeks old. […] The total administered volume was 20 μl for all conditions. Mice were randomly assigned to treatment groups after matching for sex and age. […] Mice were treated intranasally with 10 μg HDM on day 0, 7, 8, and 9, prior to sacrifice on day 10. All experiments were conducted in accordance with animal protocols approved by the Harvard Medical Area Standing Committee on Animals or BWH IACUC.
Lung analysis. Mice were sacrificed and perfused with cold PBS. Where indicated, after perfusion, broncho alveolar lavage (BAL) was obtained by injecting 1.5 ml cold PBS into the lungs via a secured tracheal cannula. BALF was centrifuged, and the supernatant was used for analyzing cytokine levels and the cell pellet was resuspended, counted, and used for flow cytometry. Following BAL, lung lobes were dissected. The post-caval lobe was fixed in buffered formalin for histological analysis. Single cell suspensions of the remaining lung parenchymal tissue were prepared with the GentleMACS lung dissociation kit (Miltenyi Biotec) according to the manufacturer's instructions. Where indicated, cells were diluted in 10% Trypan Blue and viable cells counted using a hemocytometer.
Quantitative real-time PCR. RNA was isolated using RNeasy Plus Mini Kit (Qiagen) and reverse transcribed to cDNA with iScript cDNA Synthesis Kit (Bio-Rad). Gene expression was analyzed by quantitative real-time PCR on a ViiA7 System (Thermo Fisher Scientific) using TaqMan Fast Advanced Master Mix (Thermo Fisher Scientific) with the following primer/probe sets: IL-5 (Mm00439646_m1), IL-13 (Mm00434204_m1), IL-17RB (Mm00444709_m1), Nmur1 (Mm04207994 m1), Nmur2 (Mm00600704_m1), and β-Actin (Applied Biosystems). Expression values were calculated relative to β-Actin detected in the same sample by duplex qPCR.
Cytokine quantification. Cytokine concentrations in BAL fluid, lung and supernatant of in vitro ILC cultures were analyzed by the LegendPlex Mouse Th Cytokine Panel (13-plex) (BioLegend) according to the manufacturer's instructions and analyzed on a FACS Calibur (BD Biosciences).
Mice and in vivo ILC activation. C57Bl/6J mice were purchased from the Jackson Laboratory. Nmur1-LacZ reporter mice with a LacZ cassette knocked into the Nmur1 locus were rederived from Nmur1^tm1.1(KOMP)Vleg sperm obtained from the trans-NIH Knock-Out Mouse Project (KOMP) Repository. NMU-deficient mice (NMU-KO) were rederived from B6.129S2-Nmu<tm1Mko> embryos from the RIKEN BioResource Center. For experiments with Nmur1-LacZ (Nmur1-KO) and NMU-KO mice, littermates that were either homozygous or heterozygous for the wild type allele were used as controls. Mice were housed under specific-pathogen-free conditions. For experiments, mice were matched for sex and age, and most mice were 6-10 weeks old. […] The total administered volume was 20 μl for all conditions. Mice were randomly assigned to treatment groups after matching for sex and age. […]
Lung analysis. […] BALF was centrifuged, and the supernatant was used for analyzing cytokine levels and the cell pellet was resuspended, counted, and used for flow cytometry. […]

Neuromedin U (FRVDEEFQSPFASQSRGYFLFRPRN-NH2; listed as Homo sapiens) [NMU, neuropeptide ligand of Nmur1 (US Biological)]
IL-33-induced lung inflammation with NMU (250 ng IL-33 and 10 μg NMU (FIG. 11)): little impact; also recorded: does not significantly amplify
allergic lung inflammation induced by the substance alone (NMU 20 μg intranasally for 3 consecutive days, no alarmin): little effect; also recorded: minimal
IL-5 protein in BALF (NMU alone 20 μg intranasally for 3 days, LegendPlex): only trace quantities
IL-25-induced allergic airway inflammation with NMU (NMU co-administered with IL-25): dramatically enhanced; also recorded: amplifies
Il5 and Il13 mRNA expression in lung (lung mononuclear cells) (intranasal daily for 3 days (500 ng IL-25, 20 μg NMU), qPCR): did not cause a significant increase
